In ChEMBL document CHEMBL1124830, “Synthesis, brain uptake, and pharmacological properties of a glyceryl lipid containing GABA and the GABA-T inhibitor gamma-vinyl-GABA” (J Med Chem, 1990):
pIC50: −log10 of the molar value.

Key:
[1] = Partition coefficient of the compound; format: ADME; conditions: octanol/water
[2] = test system: Mus musculus; assay: Concentration of brain in mice after sc administration at 33 mg/kg; format: functional, organism-based; set-up: dose 33 mg/kg
[3] = organism: Rattus norvegicus; assay: Inhibitory concentration that suppress the CA1 population spike in rat hippocampus slices; format: functional, organism-based
[4] = test system: Mus musculus; assay: Concentration of liver in mice after sc administration at 33 mg/kg; format: functional, organism-based; set-up: dose 33 mg/kg
[5] = organism: Mus musculus; assay: Dose required to produce a 50% reduction in general motor activity after injection in mice; format: functional
[6] = Brain penetration index calculated as ([Brain]/[Liver])x100 @ 5 min after sc administration in mice at 33 mg/kg; format: functional; conditions: route subcutaneous
[7] = Brain penetration index calculated as ([Brain]/[Liver])x100 @ 5 min after sc administration in mice at 3-39 mg/kg; format: functional
[8] = organism: Mus musculus; conditions: Liver
[9] = organism: Mus musculus; conditions: 3-39 mg/kg

SMILES | Partition coefficient [1] | Concentration (nM (g of tissue)-1) [2] | pIC50 [3] | Concentration (nM (g of tissue)-1) [4] | Dose [5] | BPI [6] | BPI [7] | Concentration (nM (g of tissue)-1) [8] | Concentration (nM (g of tissue)-1) [9]
C=CC(N)CCC(=O)OCC(COC(=O)CCCCCCC/C=C\C/C=C\C/C=C\CC)OC(=O)CCCN (stereo unspecified) | 1.76 | 8.34 | 3.10 | 8.94 | 25 µM/kg | 97 | – | – | –
C=CC(N)CCC(=O)O (stereo unspecified) [VIGABATRIN] | – | – | – | – | 9000 µM/kg | – | – | – | –
NCCCC(=O)O [GAMMA-AMINOBUTYRIC ACID] | 0.004 | – | – | – | – | – | 1 | 4.17 | 0.04
